Source: patent US9969698B2, “Quinoxalinyl-piperazinamide methods of use” (REXAHN PHARMACEUTICALS, INC., priority 2015, dated 2018)
Marks after values point to notes of the source that are not given here.

Assays:
[1] = system: human colorectal tumor xenografts (Colo205); assay: Colorectal cancer xenograft model; format: in vivo, mice; conditions: oral
Source text: (§1) The efficacy of RX-5902 in human cancer xenograft mouse models is examined. Female nude mice (nu/nu, Harlan or CRL: NU(NCr)-Foxn1^nu, Charles River), 9-10 weeks old, with a body weight (BW) range of 15-30 g on day 1 of the study, are fed ad libitum water (reverse osmosis, 1 ppm C1), and NIH 31 Modified and Irradiated Lab Diet® consisting of 18.0% crude protein, 5.0% crude fat, and 5.0% crude fiber. The mice are housed on irradiated Enrich-o'Cobs™ Laboratory Animal Bedding in static microisolators on a 12-hour light cycle at 20-22° C. (68-72° F.) and 40-60% humidity. The study complies with the recommendations of the Guide for, Care and Use of Laboratory Animals with respect to restraint, husbandry, surgical procedures, feed and fluid regulation, and veterinary care.
(§2) Various human tumor cell lines (e.g., HCT116, HT29, H460, H69, Caki-1, CaSki, MiaPaca2, BxPC3 and Colo 205 cells [ATCC, Manassas, Va., USA]) are cultured according to ATCC's instruction. […]
(§3) The cells are harvested during exponential growth and re-suspended with phosphate buffered saline. Each test animal receives a subcutaneous (s.c.) injection of 5×10^6 tumor cells into the right flank and tumor growth is monitored as the average tumor size approaches the target range of 80-300 mm^3. […] Tumors and body weights are measured regularly until the study is terminated.
(§4) Tumors are measured in two dimensions using calipers, and volume is calculated using the formula: […]
(§5) Treatment efficacy is determined using data from Day 15. The MTV (n), the median tumor volume for the number of animals, n, on Day 15, is determined for each group. Percent tumor growth inhibition (% TGI) is defined as the difference between the MTV of the designated control group (vehicle administration) and the MTV of the drug-treated group, expressed as a percentage of the MTV of the control group: % TGI=[1−(MTVdrug treated/MTVcontrol)]×100 The data set for TGI analysis includes all animals in a group, except those that die due to treatment-related (TR) or non-treatment-related (NTR) causes. […]
(§6) Animals are monitored individually for tumor growth until Day 71. […]

[2] = system: human non-small cell lung tumor xenografts (A549); assay: Non-small cell lung cancer xenograft model; format: in vivo, mice; conditions: oral
Source text: as §1, §2, §3, §4, §5, §6

[3] = system: MC38 murine colon cancer; assay: Syngeneic MC38 murine colon cancer model; format: in vivo
Procedure: Following the methods described below, the effect of RX-5902 on tumor growth in a syngeneic model using female C57BL/6 mice with MC38 murine colon cancer was examined. Tumor growth was measured in a treatment group compared to a control (vehicle treated) group (see Table 5 below for dosing schema and treatment regimen).
The present study consisted of five groups (n=10 per group) of female C57BL/6 mice bearing subcutaneous MC38 tumors (mean tumor volume range: 66-68 mm3) on Day (D1) of the study, when dosing began. Vehicle was administered orally (p.o.). RX-5902 was administered p.o. at 84.34 mg/kg (70 mg/kg active dose). Anti-PD-1 (RMP1-14) was administered at 100 μg/animal, intraperitoneally (i.p.). Group 1 mice served as controls and received PBS (vehicle) five days on, two days off for three cycles ((5/2)×3). Group 2 received RX-5902 (5/2)×3. Group 3 received anti-PD-1 twice weekly for two weeks (biwk×2). Group 4 received RX-5902 (5/2)×3 and anti-PD-1 biwk×2. The study endpoint was a tumor volume of 1500 mm^3 or 45 days, whichever came first. Tumor measurements were taken twice weekly until Day 45 with individual animals exiting the study upon reaching the tumor volume endpoint.
Partial treatment outcome was based on percent tumor growth inhibition (% TGI), defined as the percent difference between Day 28, chosen for the TGI analysis, median tumor volumes (MTVs) of treated and control mice. The results were analyzed and were deemed statistically significant at P≤0.05. A treatment that produced at least 60% TGI was considered to have potential therapeutic activity. Additionally, efficacy was determined from tumor growth delay (TGD), a measure of the increase in the median time to endpoint (TTE) in a treatment, compared to the control group. Response was additionally evaluated based on the number of study survivors, partial regression (PR) and complete regression (CR) responses, and logrank significance of differences in survival. Tolerability of the various treatments was assessed by body weight (BW) measurements and frequent observation for clinical symptoms and treatment-related (TR) side effects.

[4] = system: human ovarian tumor xenografts (A-2780); assay: Cisplatin-resistant ovarian cancer xenograft model; format: in vivo, mice; conditions: oral
Source text: as §1, §2, §3, §4, §5, §6

[5] = system: ovarian tumor xenograft (SK-OV3); assay: Ovarian tumor xenograft model; format: in vivo, mice; conditions: oral, 5ON/2OFF
Source text: as §1, with “The study complies with the recommendations of the Guide for, Care and Use of Laboratory Animals with respect to restraint, husbandry, surgical procedures, feed and fluid regulation, and veterinary care.” left out
as §3, §4
Treatment efficacy is determined using data from Day 15. The MTV (n), the median tumor volume for the number of animals, n, on Day 15, is determined for each group. […]
Animals are monitored individually for tumor growth until Day 71. […] The time to endpoint (TTE) for each mouse is calculated with the following equation: […]

`COc1cc(OC)cc(N2CCN(C(=O)Nc3nc4cc(F)ccc4nc3OC)CC2)c1` [RX-5902, 4-(3,5-dimethoxyphenyl)-N-(7-fluoro-3-methoxyquinoxalin-2-yl)piperazine-1-carboxamide] showed a TGI % ([1]; 160 mg/kg QWK) of 0%*, a TGI % ([1]; 320 mg/kg QWK) of 13%* and a TGI % ([1]; 600 mg/kg QWK) of 33%*. For the same compound, the TGI % ([2]; 160 mg/kg QWK) was 30%*, the TGI % ([2]; 320 mg/kg QWK) was 26%* and the TGI % ([2]; 600 mg/kg QWK) was 26%*. The TGD ([3]; 45-day study, maximum possible 52%, RX-5902 84.34 mg/kg po (5/2)x3, anti-PD-1 100 μg/animal ip biwk x2) was 51%, the “median TTE” value ([3]; 45-day study, RX-5902 84.34 mg/kg po (5/2)x3, anti-PD-1 100 μg/animal ip biwk x2) was 44.8 days and the “% TGI” value ([3]; Day 28, RX-5902 84.34 mg/kg po (5/2)x3, anti-PD-1 100 μg/animal ip biwk x2) was 90%. The “MTV on D45” value ([3]; median tumor volume of survivors) was 14 mm^3, the “partial regressions (PR)” value ([3]; n=10 per group) was “three” and the “survivors on D45” value ([3]; n=10 per group) was “Five”. For the same compound, the TGI % ([4]; 160 mg/kg QWK) was 43%*, the TGI % ([4]; 320 mg/kg QWK) was 43%* and the TGI % ([4]; 600 mg/kg QWK) was 75%*. The TGD % ([5]; 40 mg/kg) was 6%^ and the TGD % ([5]; 70 mg/kg) was 49%^.
